Consider 19 compounds from patent US20230072683A1, “PYRIDO-PYRIMIDIN DERIVATIVES AND PHARMACEUTICAL COMPOSITION, FOR USE IN PREVENTING OR TREATING PI3 KINASE RELATED DISEASES, COMPRISING SAME AS ACTIVE INGREDIENT” (BORYUNG PHARMACEUTICAL CO., LTD, priority 2019, published 2023).

Read-outs that look alike come from different tables or passages of the source.

In assay [1] the target is PI3K-δ (PI3K(p1108/p857) (h)) (Homo sapiens, UniProt O00329). As to the kind of experiment: Evaluation of inhibitory activity against PI3K-δ (HTRF kinase assay). Particulars: for inhibition at 0.01 µM: compound concentration 0.01 μM, read-out: EXP_VALUE(% Inhibition) PI3K-δ 0.01 μM; for inhibition at 0.1 µM: read-out: EXP_VALUE(% Inhibition) PI3K-δ 0.1 μM. The assay is classed as biochemical. Summed up: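 HTRF read-out (665/620 nm ratio ×10000) used Eu-labelled anti-GST, GST-tagged GRP1 PH domain and streptavidin-allophycocyanin after EDTA/PIP3 stop.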
On the technique in general: Time-resolved FRET reads energy transfer from a long-lived donor to a nearby acceptor.

In a further assay the target is DNA-PK(h) (Homo sapiens, UniProt P78527). In words: Evaluation of inhibitory activity against DNA-PK (HTRF kinase assay, GST-cMyc-p53 substrate). The assay is classed as biochemical. To be noted: for inhibition at 0.01 µM: compound concentration 0.01 μM, read-out: EXP_VALUE(% Inhibition) DNA-PK(h) 0.01 μM; for inhibition at 0.1 µM: read-out: EXP_VALUE(% Inhibition) DNA-PK(h) 0.1 μM. The essentials: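 Human DNA-PK with 50 μM GST-cMyc-p53 substrate; reaction started with Mg/ATP, run 30 min at room temperature, stopped with EDTA. Phospho-Ser15 p53 detected by HTRF (Eu anti-phospho-Ser15, d2 anti-GST), signal = 10000×(Em 665/Em 620).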

Sequence of PI3K-δ (PI3K(p1108/p857) (h)) (O00329 whole entry, the tested form may be a part): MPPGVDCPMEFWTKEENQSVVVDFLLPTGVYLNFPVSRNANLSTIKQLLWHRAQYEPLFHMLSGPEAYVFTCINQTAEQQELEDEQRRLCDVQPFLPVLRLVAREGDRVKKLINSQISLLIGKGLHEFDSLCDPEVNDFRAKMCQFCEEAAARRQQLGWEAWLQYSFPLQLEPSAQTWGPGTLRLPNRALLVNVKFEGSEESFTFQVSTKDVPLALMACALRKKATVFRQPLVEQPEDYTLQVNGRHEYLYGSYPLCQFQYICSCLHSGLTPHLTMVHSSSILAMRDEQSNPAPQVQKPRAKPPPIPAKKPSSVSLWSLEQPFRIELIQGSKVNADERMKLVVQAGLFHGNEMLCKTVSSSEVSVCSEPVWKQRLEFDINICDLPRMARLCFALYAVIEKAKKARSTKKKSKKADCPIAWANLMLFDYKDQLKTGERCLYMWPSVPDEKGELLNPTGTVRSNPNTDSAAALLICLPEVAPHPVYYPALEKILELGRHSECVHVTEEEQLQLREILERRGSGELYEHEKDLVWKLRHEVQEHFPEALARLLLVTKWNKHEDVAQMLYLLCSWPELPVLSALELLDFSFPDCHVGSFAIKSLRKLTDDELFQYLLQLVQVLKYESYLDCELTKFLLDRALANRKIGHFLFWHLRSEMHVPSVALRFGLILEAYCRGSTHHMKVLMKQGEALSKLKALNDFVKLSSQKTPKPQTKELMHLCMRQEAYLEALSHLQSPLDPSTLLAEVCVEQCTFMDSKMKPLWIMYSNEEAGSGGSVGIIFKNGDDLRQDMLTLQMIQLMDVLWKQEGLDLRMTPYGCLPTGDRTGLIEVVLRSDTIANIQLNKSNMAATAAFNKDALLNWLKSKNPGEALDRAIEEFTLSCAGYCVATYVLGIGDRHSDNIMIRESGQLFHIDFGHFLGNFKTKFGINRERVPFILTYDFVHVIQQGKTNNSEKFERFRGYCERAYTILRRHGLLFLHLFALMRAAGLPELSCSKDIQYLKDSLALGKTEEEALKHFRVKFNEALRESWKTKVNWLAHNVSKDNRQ
Sequence of PI3K-δ (PI3K(p1108/p857) (h)) (P27986 whole entry partner, the tested form may be a part): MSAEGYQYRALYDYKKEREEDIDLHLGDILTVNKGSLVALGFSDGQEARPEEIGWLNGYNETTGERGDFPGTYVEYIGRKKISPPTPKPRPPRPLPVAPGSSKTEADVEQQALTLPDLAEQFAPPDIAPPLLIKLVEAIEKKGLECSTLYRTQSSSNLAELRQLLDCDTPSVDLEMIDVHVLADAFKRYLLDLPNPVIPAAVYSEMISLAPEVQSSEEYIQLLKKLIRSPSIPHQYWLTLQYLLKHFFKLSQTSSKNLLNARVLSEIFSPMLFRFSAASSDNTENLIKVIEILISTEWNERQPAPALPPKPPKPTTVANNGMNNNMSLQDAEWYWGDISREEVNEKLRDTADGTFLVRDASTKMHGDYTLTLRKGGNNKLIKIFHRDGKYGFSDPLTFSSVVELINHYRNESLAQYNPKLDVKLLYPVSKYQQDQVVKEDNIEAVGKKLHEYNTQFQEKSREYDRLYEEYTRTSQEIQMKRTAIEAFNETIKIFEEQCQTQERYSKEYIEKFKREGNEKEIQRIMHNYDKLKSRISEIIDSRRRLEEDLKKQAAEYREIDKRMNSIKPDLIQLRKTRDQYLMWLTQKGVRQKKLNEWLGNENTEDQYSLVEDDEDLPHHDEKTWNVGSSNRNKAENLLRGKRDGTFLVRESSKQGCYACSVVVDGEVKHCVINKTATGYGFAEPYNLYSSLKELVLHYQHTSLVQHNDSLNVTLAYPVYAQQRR

For orientation: inhibition means the relative decrease from the control value, in per cent. For `COCCOc1cccc2c(Cl)c([C@H](C)Nc3ncnc4[nH]ccc(=O)c34)n(-c3ccccc3)c(=O)c12` [Example 363, (S)-4-((1-(4-chloro-8-(2-methoxyethoxy)-1-oxo-2-phenyl-1,2-dihydroisoquinolin-3-yl)ethyl)amino)pyrido[2,3-d]pyrimidin-5(8H)-one], the values for the inhibition at 0.01 µM (in assay [1]; on DNA-PK(h)) were 26% and 35%, respectively. Besides, the inhibition at 0.1 µM in assay [1] (compound concentration 0.1 μM) was determined as 76%; on DNA-PK(h) (compound concentration 0.1 μM) it was 80%.

On to `C[C@H](Nc1ncnc2[nH]ccc(=O)c12)c1c(Cl)c2cccc(OCC(F)(F)F)c2c(=O)n1-c1ccccc1` [Example 364, (S)-4-((1-(4-chloro-1-oxo-2-phenyl-8-(2,2,2-trifluoroethoxy)-1,2-dihydroisoquinolin-3-yl)ethyl)amino)pyrido[2,3-d]pyrimidin-5(8H)-one], for which the inhibition at 0.01 µM in assay [1] is 29%; at DNA-PK(h), 21%. For the same compound, the inhibition at 0.1 µM in assay [1] (compound concentration 0.1 μM) was determined as 76%; on DNA-PK(h) (compound concentration 0.1 μM) it was 82%.

Consider `COc1cccc2c(Cl)c([C@H](C)Nc3ncnc4[nH]ccc(=O)c34)n(-c3ccccc3)c(=O)c12` [Example 365, (S)-4-((1-(4-chloro-8-methoxy-1-oxo-2-phenyl-1,2-dihydroisoquinolin-3-yl)ethyl)amino)pyrido[2,3-d]pyrimidin-5(8H)-one], for which the inhibition at 0.01 µM in assay [1] turned out to be 31%; at DNA-PK(h), 28%. In addition, the figures for the inhibition at 0.1 µM (in assay [1] (compound concentration 0.1 μM); at DNA-PK(h) (compound concentration 0.1 μM)) were 84% and 65%, respectively.

For `COc1ccccc1Oc1cccc2c(Cl)c([C@H](C)Nc3ncnc4[nH]ccc(=O)c34)n(-c3ccccc3)c(=O)c12` [Example 366, (S)-4-((1-(4-chloro-8-(2-methoxyphenoxy)-1-oxo-2-phenyl-1,2-dihydroisoquinolin-3-yl)ethyl)amino)pyrido[2,3-d]pyrimidin-5(8H)-one], the inhibition at 0.01 µM in assay [1] was 41%; on DNA-PK(h) it was 23%. Moreover, the inhibition at 0.1 µM in assay [1] (compound concentration 0.1 μM) worked out at 85%; on DNA-PK(h) (compound concentration 0.1 μM), 69%.

For `Cc1ccc(Oc2cccc3c(Cl)c([C@H](C)Nc4ncnc5[nH]ccc(=O)c45)n(-c4ccccc4)c(=O)c23)cc1` [Example 367, (S)-4-((1-(4-chloro-1-oxo-2-phenyl-8-(p-tolyloxy)-1,2-dihydroisoquinolin-3-yl)ethyl)amino)pyrido[2,3-d]pyrimidin-5(8H)-one], the inhibition at 0.01 µM in assay [1] amounted to 51%; at DNA-PK(h), 21%. Moreover, the inhibition at 0.1 µM is 93% in assay [1] (compound concentration 0.1 μM) and 67% at DNA-PK(h) (compound concentration 0.1 μM).

Consider `CC(Oc1cccc2c(Cl)c([C@H](C)Nc3ncnc4[nH]ccc(=O)c34)n(-c3ccccc3)c(=O)c12)c1ccncc1` (stereo partly drawn) [Example 368, 4-(((1S)-1-(4-chloro-1-oxo-2-phenyl-8-(1-(pyridin-4-yl)ethoxy)-1,2-dihydroisoquinolin-3-yl)ethyl)amino)pyrido[2,3-d]pyrimidin-5(8H)-one], for which the inhibition at 0.01 µM in assay [1] is 72%; on DNA-PK(h) it was 50%. Also, the inhibition at 0.1 µM in assay [1] (compound concentration 0.1 μM) was 94%; at DNA-PK(h) (compound concentration 0.1 μM), 85%.

Take `C[C@H](Nc1ncnc2[nH]ccc(=O)c12)c1c(Cl)c2cccc(SCc3ccc(Cl)cc3)c2c(=O)n1-c1ccccc1` [Example 369, (S)-4-((1-(4-chloro-8-((4-chlorobenzyl)thio)-1-oxo-2-phenyl-1,2-dihydroisoquinolin-3-yl)ethyl)amino)pyrido[2,3-d]pyrimidin-5(8H)-one]: the inhibition at 0.01 µM in assay [1] was found to be 5%; on DNA-PK(h), 14%. For the same compound, the inhibition at 0.1 µM stood at 27% in assay [1] (compound concentration 0.1 μM) and 54% at DNA-PK(h) (compound concentration 0.1 μM).

With `C[C@H](Nc1ncnc2[nH]ccc(=O)c12)c1c(Cl)c2cccc(Sc3ccncc3)c2c(=O)n1-c1ccccc1` [Example 370, (S)-4-((1-(4-chloro-1-oxo-2-phenyl-8-(pyridin-4-ylthio)-1,2-dihydroisoquinolin-3-yl)ethyl)amino)pyrido[2,3-d]pyrimidin-5(8H)-one], the results for the inhibition at 0.01 µM (in assay [1]; on DNA-PK(h)) were 69% and 39%, respectively. Moreover, the inhibition at 0.1 µM is 96% in assay [1] (compound concentration 0.1 μM) and 76% on DNA-PK(h) (compound concentration 0.1 μM).

Take `C[C@H](Nc1ncnc2[nH]ccc(=O)c12)c1c(Cl)c2cccc(Sc3ccc(Cl)cc3)c2c(=O)n1-c1ccccc1` [Example 371, (S)-4-((1-(4-chloro-8-((4-chlorophenyl)thio)-1-oxo-2-phenyl-1,2-dihydroisoquinolin-3-yl)ethyl)amino)pyrido[2,3-d]pyrimidin-5(8H)-one]: the inhibition at 0.01 µM in assay [1] turned out to be 2%; on DNA-PK(h), 0%. In addition, the values for the inhibition at 0.1 µM (in assay [1] (compound concentration 0.1 μM); on DNA-PK(h) (compound concentration 0.1 μM)) were 10% and 4%, respectively.

As to `CCCSc1cccc2c(Cl)c([C@H](C)Nc3ncnc4[nH]ccc(=O)c34)n(-c3ccccc3)c(=O)c12` [Example 372, (S)-4-((1-(4-chloro-1-oxo-2-phenyl-8-(propylthio)-1,2-dihydroisoquinolin-3-yl)ethyl)amino)pyrido[2,3-d]pyrimidin-5(8H)-one], the inhibition at 0.01 µM was 3% in assay [1] and 38% at DNA-PK(h). Further, the values for the inhibition at 0.1 µM (in assay [1] (compound concentration 0.1 μM); on DNA-PK(h) (compound concentration 0.1 μM)) were 19% and 79%, respectively.

Take `C[C@H](Nc1ncnc2[nH]ccc(=O)c12)c1c(Cl)c2cccc(-c3ccc4c(c3)NC(=O)C(C)(C)O4)c2c(=O)n1-c1ccccc1` [Example 373, (S)-6-(4-chloro-1-oxo-3-(1-((5-oxo-5,8-dihydropyrido[2,3-d]pyrimidin-4-yl)amino)ethyl)-2-phenyl-1,2-dihydroisoquinolin-8-yl)-2,2-dimethyl-2H-benzo[b] [1,4]oxazin-3 (4H)-one]: the inhibition at 0.1 µM was 48% in assay [1] (compound concentration 0.1 μM) and 36% on DNA-PK(h) (compound concentration 0.1 μM).

Turning to `COc1cc(-n2ccc(=O)c3c(N[C@@H](C)c4c(Cl)c5ccccc5c(=O)n4-c4ccccc4)ncnc32)ccn1` [Example 374, (S)-4-((1-(4-chloro-1-oxo-2-phenyl-1,2-dihydroisoquinolin-3-yl)ethyl)amino)-8-(2-methoxypyridin-4-yl)pyrido[2,3-d]pyrimidin-5(8H)-one], the figures for the inhibition at 0.1 µM (in assay [1] (compound at 0.1 μM); at DNA-PK(h) (compound at 0.1 μM)) were 21% and 14%, respectively.

In the case of `CC(C)Oc1cnc(-c2cccc3c(Cl)c([C@H](C)Nc4ncnc5[nH]ccc(=O)c45)n(-c4ccccc4)c(=O)c23)cn1` [Example 376, (S)-4-((1-(4-chloro-8-(5-isopropoxypyrazin-2-yl)-1-oxo-2-phenyl-1,2-dihydroisoquinolin-3-yl)ethyl)amino)pyrido[2,3-d]pyrimidin-5(8H)-one], the values for the inhibition at 0.1 µM (in assay [1] (compound at 0.1 μM); at DNA-PK(h) (compound at 0.1 μM)) were 49% and 18%, respectively.

In the case of `C[C@H](Nc1ncnc2[nH]ccc(=O)c12)c1c(Cl)c2cccc(-c3cnc(-c4cccs4)nc3)c2c(=O)n1-c1ccccc1` [Example 377, (S)-4-((1-(4-chloro-1-oxo-2-phenyl-8-(2-(thiophen-2-yl)pyrimidin-5-yl)-1,2-dihydroisoquinolin-3-yl)ethyl)amino)pyrido[2,3-d]pyrimidin-5(8H)-one], the inhibition at 0.1 µM worked out at 59% in assay [1] (compound at 0.1 μM) and 30% on DNA-PK(h) (compound at 0.1 μM).

In the case of `C[C@H](Nc1ncnc2[nH]ccc(=O)c12)c1c(Cl)c2cccc(-c3cnc(-c4ccco4)nc3)c2c(=O)n1-c1ccccc1` [Example 378, (S)-4-((1-(4-chloro-8-(2-(furan-2-yl)pyrimidin-5-yl)-1-oxo-2-phenyl-1,2-dihydroisoquinolin-3-yl)ethyl)amino)pyrido[2,3-d]pyrimidin-5(8H)-one], the inhibition at 0.1 µM in assay [1] (compound at 0.1 μM) was 61%; on DNA-PK(h) (compound at 0.1 μM) it was 18%.

In the case of `CCc1ncc(-c2cccc3c(Cl)c([C@H](C)Nc4ncnc5[nH]ccc(=O)c45)n(-c4ccccc4)c(=O)c23)cn1` [Example 379, (S)-4-((1-(4-chloro-8-(2-ethylpyrimidin-5-yl)-1-oxo-2-phenyl-1,2-dihydroisoquinolin-3-yl)ethyl)amino)pyrido[2,3-d]pyrimidin-5(8H)-one], the figures for the inhibition at 0.1 µM (in assay [1] (compound at 0.1 μM); on DNA-PK(h) (compound at 0.1 μM)) were 80% and 74%, respectively.

Consider `C[C@H](Nc1ncnc2[nH]ccc(=O)c12)c1c(Cl)c2cccc(-c3cc4ccccc4[nH]3)c2c(=O)n1-c1ccccc1` [Example 380, (S)-4-((1-(4-chloro-8-(1H-indol-2-yl)-1-oxo-2-phenyl-1,2-dihydroisoquinolin-3-yl)ethyl)amino)pyrido[2,3-d]pyrimidin-5(8H)-one], for which the inhibition at 0.1 µM is 76% in assay [1] (compound at 0.1 μM) and 19% on DNA-PK(h) (compound at 0.1 μM).

As for `CC(C)c1ncc(-c2cccc3c(Cl)c([C@H](C)Nc4ncnc5[nH]ccc(=O)c45)n(-c4ccccc4)c(=O)c23)cn1` [Example 381, (S)-4-((1-(4-chloro-8-(2-isopropylpyrimidin-5-yl)-1-oxo-2-phenyl-1,2-dihydroisoquinolin-3-yl)ethyl)amino)pyrido[2,3-d]pyrimidin-5(8H)-one], the inhibition at 0.1 µM in assay [1] (compound at 0.1 μM) came to 81%; at DNA-PK(h) (compound at 0.1 μM), 69%.

As to `C[C@H](Nc1ncnc2[nH]ccc(=O)c12)c1c(Cl)c2cccc(-c3cnc(F)nc3)c2c(=O)n1-c1ccccc1` [Example 382, (S)-4-((1-(4-chloro-8-(2-fluoropyrimidin-5-yl)-1-oxo-2-phenyl-1,2-dihydroisoquinolin-3-yl)ethyl)amino)pyrido[2,3-d]pyrimidin-5(8H)-one], the inhibition at 0.1 µM in assay [1] (compound at 0.1 μM) amounted to 16%; at DNA-PK(h) (compound at 0.1 μM) it was 5%.
